Measured values published in patent US4532240A, “Diaminopyrimidines” (Warner-Lambert Company, priority 1983, dated 1985).
Values joined by “and” are separate entries in the source; they are usually repeats but may differ in a detail not shown here. Equal values may be shown once. Where a name gives a salt, the structure may show the parent alone.

Columns and labels:
[1] = tested on: HCT-8 (human colon adenocarcinoma) cells; assay: In vitro activity against HCT-8 human colon adenocarcinoma cells; format: cell-based; details: HCT-8, 60-65 hours with compound, 37° C., read-out: ID50 against human colon adenocarcinoma
Experimental: HCT-8 (human colon adenocarcinoma) cells are trypsinized using Trypsin-EDTA. A single cell suspension is achieved by passing the cells through a 26 gauge needle with a 20 cc syringe. A cell suspension is prepared using RPMI 1640+10% FCS+50 μg/ml garamycin with a cell concentration of approximately 30,000 cells/ml. The cell suspension is dispensed in Linbro 24-well plates; 1 ml/well. The plates are incubated for approximately 48 hours at 37° C. in a 5% CO2 atmosphere. At this time test compounds are added in the appropriate concentration. Five μl of the 200 μg/ml stock solution is added to each well in a primary test. Ten μl of the appropriate dilution is added to each well for a titration test. The plates are reincubated an additional 60-65 hours at 37° C. in a 5% CO2 atmosphere. The test is read by lysing the cells using a mix of cationic surfactant, glacial acetic acid and sodium chloride. […] of the lysed cell suspension from each well is added to 8 ml of diluent. Each sample is read on the Coulter counter (ZBI model). The activity of each sample is measured as a percentage of the controls and the data is reported as ID50, that is the molar quantity of drug required to kill 50% of the tumor cells.

[2] = tested on: B. catarrhalis; assay: Antibacterial disk zone of inhibition, B. catarrhalis; format: cell-based, Branhamella catarrhalis 03596; details: Moraxella catarrhalis, read-out: Inhibition Zone diameter; for zone of inhibition at 10 µg/mL: 0.01 mg/ml
Experimental: (§1) Vegetative bacterial isolates are maintained on agar slants or in liquid media, hereby designated as inoculum media. The cultures are transferred at regular intervals in such media. (See Table IV for the corresponding inoculum media of each culture.) The organisms are generally transferred either onto agar slants or into liquid inoculum media and incubated at 37° C. (at 28° C. with Xanthomonas sp.) overnight (18-20 hours).
(§2) The microbial cells from the overnight agar slants are then scraped off and suspended in saline solution (0.85% NaCl). The microbial concentrations are adjusted to a light transmission of 8.6% using a PerkinElmer Model 35 spectrophotometer (550 nm). For the organisms that are maintained in liquid media, one of two procedures is followed: (1) the culture suspension is first centrifuged at 5000 rpm for five minutes. The pellet is resuspended in 0.85% saline to 8.6% light transmittancy; (2) an aliquot of the culture suspension is to be added directly to the assay medium.
(§3) A given molten-agar assay medium, maintained in a flask at approximately 45° C., is inoculated with 0.16-10 ml of an appropriate cell or spore suspension per 100 ml of medium. Fifty ml of the inoculated medium is poured into a Bio-Assay dish (A/S Nunc; Gibco Laboratories Catalog Number 240835) and spread evenly across the bottom, then allowed to solidify at room temperature. Each agar dish is inverted and refrigerated until used.
(§4) The compounds or samples to be tested are dissolved in suitable solvents, e.g., alcohols, dimethylsulfoxide, or N,N-dimethylformamide. The samples are generally dissolved so that the final concentration of the solvent is <10%.* The compounds are tested at different concentrations: 3,000; 1,000; 500; 100; and 10 mcg/ml. Paper discs (12.7 mm diameter) saturated with a given concentration of test compound are placed onto the seeded agar dishes with a pair of forceps.
(§5) The disked agar dishes are incubated at 37° C. (28° C. for Xanthamonas sp.) for 18-20 hours. Active compounds show a zone of inhibition around the disc. The diameter of the zone is measured in mm. The zone diameter of active compounds ranges from a minimum of 13.5 mm to as high as 60 mm. The size of the zone diameter generally reflects the activity of the compound: the larger the zone the greater the activity.

[3] = tested on: B. subtilis; assay: Antibacterial disk zone of inhibition, B. subtilis; format: cell-based, Bacillus subtilis 04555; details: Bacillus subtilis, read-out: Inhibition Zone diameter
Experimental: as §1, §2
Isolate spore suspensions (Bacillus sp.) are maintained at 4° C. These suspensions serve as the inoculum media for assays.
as §3, §4, §5

[4] = tested on: S. lutea; assay: Antibacterial disk zone of inhibition, S. lutea (as headed); format: cell-based, Micrococcus luteus 05064; details: Micrococcus luteus, read-out: Inhibition Zone diameter
Experimental: as §1, §2, §3, §4, §5

[5] = tested on: X. phaseoli; assay: Antibacterial disk zone of inhibition, X. phaseoli; format: cell-based, Xanthomonas phascoli 06002; details: Xanthomonas; 3.0 mg/ml; read-out: Inhibition Zone diameter
Experimental: as §1, §2, §3, §4, §5

[6] = tested on: M. faecalis; assay: Antibacterial disk zone of inhibition, M. faecalis (as headed); format: cell-based, Streptococcus faecalis 05045; details: Enterococcus faecalis, read-out: Inhibition Zone diameter
Experimental: as §1, §2, §3, §4, §5

[7] = tested on: P388 Leukemia; assay: In vivo lymphocytic leukemia P388 test in mice; set-up: species or system CD2 F1 mice; details: intraperitoneal, two single doses four days apart
Experimental: The in vivo lymphocytic leukemia P388 test is carried out using the test system of the United States National Cancer Institute. The animals used are either male or female CD2 F1 mice. There are six to seven animals per test group. The tumor transplant is by intraperitoneal injection of dilute ascitic fluid containing cells of lymphocytic leukemia P388. The test compounds are administered intraperitoneally in two single doses with a four-day interval between doses at various dose levels following tumor inoculation. The animals are weighed and survivors are recorded on a regular basis for 30 days. A ratio of survival time for treated (T)/control (C) animals is calculated. The criterion for efficacy is T/C×100>125%. The positive control compound in this test is 5-fluorouracil. See Cancer Chemotherapy Reports, Part 3, 3, 1 (1972) for a comprehensive discussion of the protocol.

[8] = tested on: L1210 cells; assay: In vitro antitumor screening on L1210 murine leukemia cell line (growth, Coulter counter); format: cell-based; details: Mus musculus, L1210, 72 h; three days, 37° C., 5% CO2; read-out: L1210 Leukemia in vitro ID50
Experimental: L1210 cells, a murine leukemia cell line, were grown in RPMI 1640 supplemented with 5% fetal bovine serum and gentamicin (50 μg/ml).
Drug dilutions were prepared in the appropriate solvent and 20 μl of each dilution were added to 24-well Linbro tissue culture plates, followed by the addition of M 2.0 ml of cell suspension containing 3×10^4cells per ml. Solvent and medium controls were included in each test. After incubation at 37° C. for three days in 5% CO2, the contents of each well were removed and the cells counted in a ZBI Coulter counter. Percent growth was calculated relative to the controls and the levels of drug activity were expressed as ID50 in moles per liter using probit paper.

SMILES: CCCc1nc(N)nc(N)c1N1CCN(c2ccc(C(=O)NC(CCC(=O)O)C(=O)O)cc2)CC1 (stereo not drawn) [drawing 17]
- IC50 [1]: 85 nM

SMILES: CCCc1nc(N)nc(N)c1N1CCN(c2ccc(C(=O)NC(CCC(=O)O)C(=O)O)cc2)CC1 (stereo not drawn) [drawing 24]
- zone of inhibition at 3000 µg/mL ([2]; 3.0 mg/ml): 18 mm
- zone of inhibition at 3000 µg/mL ([3]; 3.0 mg/ml): 0 mm
- zone of inhibition at 1000 µg/mL ([4]; 1.0 mg/ml): 16 mm
- zone of inhibition at 3000 µg/mL [5]: 0 mm
- zone of inhibition at 100 µg/mL ([6]; 0.1 mg/ml): 16 mm

SMILES: CCOC(=O)CCC(NC(=O)c1ccc(N2CCN(c3c(N)nc(N)nc3CC)CC2)cc1)C(=O)OCC (stereo not drawn) [drawing 19]
- T/C × 100 ([7]; 6.25 mg/kg): 163%
- T/C × 100 ([7]; 12.5 mg/kg): 183%
- T/C × 100 ([7]; 25 mg/kg): 241%
- survival rate after 30 days ([7]; 25 mg/kg): 2/6
- T/C × 100 ([7]; 50 mg/kg): 258%
- survival rate after 30 days ([7]; 50 mg/kg): 5/6

SMILES: Cc1nc(N)nc(N)c1N1CCN(c2ccc([N+](=O)[O-])cc2)CC1 [Example 4, 6-Methyl-5-[4-(4-nitrophenyl)-1-piperazinyl]-2,4-pyrimidinediamine, hydrate (10:1)]
- IC50 [8]: 15 nM
- IC50 [1]: > 1000 nM

SMILES: Cc1nc(N)nc(N)c1N1CCN(c2ccc(C(=O)N[C@@H](CCC(=O)O)C(=O)O)cc2)CC1 [drawing 21]
- zone of inhibition at 10 µg/mL [2]: 25 mm
- zone of inhibition at 10 µg/mL ([3]; 0.01 mg/ml): 22 mm
- zone of inhibition at 3000 µg/mL ([4]; 3.0 mg/ml): 0 mm
- zone of inhibition at 3000 µg/mL [5]: 0 mm
- zone of inhibition at 3000 µg/mL ([6]; 3.0 mg/ml): 0 mm

SMILES: CCc1nc(N)nc(N)c1N1CCN(c2ccc(C#N)cc2)CC1 [Example 10, 5-[4-(4-cyanophenyl)-1-piperazinyl]-6-ethyl-2,4-pyrimidinediamine]
- IC50 [8]: 7.7 nM
- T/C × 100 ([7]; 50 mg/kg): 126%
- IC50 [1]: 89 nM

SMILES: CCc1nc(N)nc(N)c1N1CCN(c2ccc(C(=O)NC(CCC(=O)O)C(=O)O)cc2)CC1 (stereo not drawn) [drawing 11]
- IC50 [8]: 2000 nM

SMILES: CCOC(=O)CCC(NC(=O)c1ccc(N2CCN(c3c(N)nc(N)nc3CC)CC2)cc1)C(=O)OCC (stereo not drawn) [drawing 10]
- IC50 [8]: 3.2 nM

SMILES: CCCc1nc(N)nc(N)c1N1CCN(c2ccc(C#N)cc2)CC1 [Example 14, 5-[4-(4-cyanophenyl)-1-piperazinyl]-6-propyl-2,4-pyrimidinediamine]
- IC50 [8]: 8.9 nM
- IC50 [1]: 120 nM

SMILES: Cc1nc(N)nc(N)c1N1CCN(c2ccccc2)CC1 [Example 20, 6-Methyl-5-(4-phenyl-1-piperazinyl)-2,4-pyrimidinediamine, hydrochloride (5:1)]
- IC50 [8]: 150 nM

SMILES: CCOC(=O)CCC(NC(=O)c1ccc(N2CCN(c3c(N)nc(N)nc3CC)CC2)cc1)C(=O)OCC (stereo not drawn) [drawing 22]
- zone of inhibition at 10 µg/mL [2]: 20 mm
- zone of inhibition at 100 µg/mL ([3]; 0.1 mg/ml): 19 mm
- zone of inhibition at 10 µg/mL ([4]; 0.01 mg/ml): 19 mm
- zone of inhibition at 3000 µg/mL [5]: 3 mm
- zone of inhibition at 10 µg/mL ([6]; 0.01 mg/ml): 15 mm

SMILES: CCOC(=O)c1ccc(N2CCN(c3c(C)nc(N)nc3N)CC2)cc1 [Example 6, 4-[4-(2,4-Diamino-6-methyl-5-pyrimidinyl)-1-piperazinyl]benzoic acid, ethyl ester]
- IC50 [8]: 5 nM
- IC50 [1]: 49 nM

SMILES: CNC(=O)c1ccc(N2CCN(c3c(C)nc(N)nc3N)CC2)cc1 [Example 7, 4-[4-(2,4-Diamino-6-methyl-5-pyrimidinyl)-1-piperazinyl]-N-methyl benzamide, hydrate (100:45)]
- IC50 [8]: 2.5 nM
- IC50 [1]: 67 nM

SMILES: Cc1nc(N)nc(N)c1N1CCN(c2ccc(C(=O)N[C@@H](CCC(=O)O)C(=O)O)cc2)CC1 [Example 3, N-[4-[4-(2,4-diamino-6-methyl-5-pyrimidinyl)-1-piperazinyl]benzoyl]-L-glutamic acid]
- T/C × 100 ([7]; 6.25 mg/kg, listed as CH3, H, H, 4-CONHCH(CO2 H)CH2 CH2 CO2 H): 144% and 137%
- T/C × 100 ([7]; 12.5 mg/kg, listed as CH3, H, H, 4-CONHCH(CO2 H)CH2 CH2 CO2 H): 155% and 168%
- T/C × 100 ([7]; 25 mg/kg, listed as CH3, H, H, 4-CONHCH(CO2 H)CH2 CH2 CO2 H): 172% and 167%
- T/C × 100 ([7]; 50 mg/kg): 222%
- T/C × 100 ([7]; 50 mg/kg, listed as CH3, H, H, 4-CONHCH(CO2 H)CH2 CH2 CO2 H): 188%

SMILES: Cc1nc(N)nc(N)c1N1CCN(c2ccc(N)cc2)CC1 [Example 22]
- IC50 [8]: 80 nM

SMILES: CCc1nc(N)nc(N)c1N1CCN(c2ccc(C(=O)NC(CCC(=O)O)C(=O)O)cc2)CC1 (stereo not drawn) [drawing 16]
- IC50 [1]: 120 nM

SMILES: Cc1nc(N)nc(N)c1N1CCN(c2ccc(Cl)cc2)CC1 [Example 21, 5-[4-(4-chlorophenyl)-1-piperazinyl]-6-methyl-2,4-pyrimidinediamine]
- IC50 [8]: 28 nM
- IC50 [1]: 350 nM

SMILES: CCOC(=O)CCC(NC(=O)c1ccc(N2CCN(c3c(N)nc(N)nc3CC)CC2)cc1)C(=O)OCC (stereo not drawn) [drawing 15]
- IC50 [1]: 26 nM

SMILES: CCCc1nc(N)nc(N)c1N1CCN(c2ccc(C(=O)NC(CCC(=O)O)C(=O)O)cc2)CC1 (stereo not drawn) [drawing 13]
- IC50 [8]: 7.5 nM

SMILES: Cc1nc(N)nc(N)c1N1CCN(c2ccc(C(=O)O)cc2)CC1.Cl [Example 1, 4-[4-(2,4-Diamino-6-methyl-5-pyrimidinyl)-1-piperazinyl]benzoic acid hydrochloride]
- T/C × 100 ([7]; 6.25 mg/kg, listed as CH3, H, H, 4-CO2 H, hydrochloride): 141% and 146%
- T/C × 100 ([7]; 12.5 mg/kg, listed as CH3, H, H, 4-CO2 H, hydrochloride): 179% and 227%
- T/C × 100 ([7]; 25 mg/kg): 137%
- T/C × 100 ([7]; 50 mg/kg): 258%
- survival rate after 30 days ([7]; 50 mg/kg): 3/6

SMILES: COC(=O)CNC(=O)c1ccc(N2CCN(c3c(C)nc(N)nc3N)CC2)cc1 [Example 8, N-[4-[4-(2,4-Diamino-6-methyl-5-pyrimidinyl)-1-piperazinyl]benzoyl]glycine,methyl ester]
- IC50 [8]: 17 nM
- IC50 [1]: 800 nM
